The source made the active and inactive calls. The calls are words filed in the database; no cut-off is given here.
Experiments:
Vero = test: (§1) Cytotoxicity against African green monkey Vero cells assessed as reduction in cell viability after 72 hrs by CCK-8 assay; assay type: toxicity, cell-based; settings: chlorocebus sabaeus, vero, 72 h
[1] = as §1; assay type: toxicity, cell-based; settings: chlorocebus sabaeus, Vero cells
Zika virus [2] = test: Antiviral activity against ZIKV infected in African green monkey Vero cells assessed as inhibition of viral replication at 50 uM incubated for 72 hrs by qRT-PCR analysis; assay type: functional, organism-based
Zika virus [3] = test: Antiviral activity against ZIKV infected in African green monkey Vero cells assessed as inhibition of viral replication incubated for 72 hrs by qRT-PCR analysis; assay type: functional, organism-based
Zika virus [4] = test: Antiviral activity against ZIKV infected in African green monkey Vero cells assessed as inhibition of viral E protein expression incubated for 72 hrs by Western blot analysis; assay type: functional, organism-based; settings: dose 5-20 µM
Zika virus [5] = test: Antiviral activity against ZIKV infected in African green monkey Vero cells assessed as inhibition of viral E protein expression at 20 uM incubated for 72 hrs by immunofluorescence analysis; assay type: functional, organism-based

EC50 (Zika virus [3]) [µM]	SMILES	Activity (Vero)	CC50 at 72 h [1] [µM]	inhibition (Zika virus [2])	inhibition (Zika virus [4])	inhibition (Zika virus [5])
	CC1=C2CCCC(C)(C)[C@@H]2CC[C@@]12C=C(C(C)C)C(=O)O2	Toxic				
	CC(C)c1cc2c(c3ocnc13)[C@@]1(C)CCCC(C)(C)[C@@H]1CC2	Toxic				
	CCc1nc2c(C(C)C)cc3c(c2o1)[C@@]1(C)CCCC(C)(C)[C@@H]1CC3	Toxic				
8	COC(C)(C)C1=Cc2ccc(C)c3c2[C@@](O)(C1=O)C(C)(C)CCC3		> 100	Active	Dose-Dependent Effect	Active
	Cc1nc2c(C(C)C)cc3c(c2o1)[C@@]1(C)CCCC(C)(C)[C@@H]1C=C3	Toxic				
8.07	CO[C@@H]1CCC(C)(C)Oc2c(O)c(C(C)C)cc3ccc(C)c1c23		> 100	Active	Dose-Dependent Effect	Active
